Experimental data taken from PubChem BioAssay (NCI).
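Cultured in 96-well plates, cells were exposed to test compound for 48 hours across five concentrations. GI50 = concentration required for 50% inhibition of growth. TGI denotes the concentration required for complete inhibition of growth.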

Experiments:
Experiment in all cases: NCI anticancer screen, dose series, 48 h
786-0 renal = system: 786-0 renal
A498 renal = system: A498 renal
A549 NSCLC = system: A549 NSCLC
ACHN renal = system: ACHN renal
BT-549 breast = system: BT-549 breast
CAKI-1 renal = system: CAKI-1 renal
CCRF-CEM leukemia = system: CCRF-CEM leukemia
COLO 205 colon = system: COLO 205 colon
DU-145 prostate = system: DU-145 prostate
EKVX NSCLC = system: EKVX NSCLC
HCC-2998 colon = system: HCC-2998 colon
HCT-116 colon = system: HCT-116 colon
HCT-15 colon = system: HCT-15 colon
HL-60(TB) leukemia = system: HL-60(TB) leukemia
HOP-62 NSCLC = system: HOP-62 NSCLC
HOP-92 NSCLC = system: HOP-92 NSCLC
HS 578T breast = system: HS 578T breast
HT29 colon = system: HT29 colon
IGROV1 ovarian = system: IGROV1 ovarian
K-562 leukemia = system: K-562 leukemia
KM12 colon = system: KM12 colon
LOX IMVI melanoma = system: LOX IMVI melanoma
M14 melanoma = system: M14 melanoma
MALME-3M melanoma = system: MALME-3M melanoma
MCF7 breast = system: MCF7 breast
MDA-MB-231 breast = system: MDA-MB-231 breast
MDA-MB-435 = system: MDA-MB-435
MOLT-4 leukemia = system: MOLT-4 leukemia
NCI-H226 lung = system: NCI-H226 lung
NCI-H23 lung = system: NCI-H23 lung
NCI-H460 lung = system: NCI-H460 lung
NCI-H522 lung = system: NCI-H522 lung
NCI/ADR-RES ovarian = system: NCI/ADR-RES ovarian
OVCAR-3 ovarian = system: OVCAR-3 ovarian
OVCAR-4 ovarian = system: OVCAR-4 ovarian
OVCAR-5 ovarian = system: OVCAR-5 ovarian
OVCAR-8 ovarian = system: OVCAR-8 ovarian
PC-3 prostate = system: PC-3 prostate
RPMI-8226 leukemia = system: RPMI-8226 leukemia
RXF 393 renal = system: RXF 393 renal
SF-268 CNS = system: SF-268 CNS
SF-295 CNS = system: SF-295 CNS
SF-539 CNS = system: SF-539 CNS
SK-MEL-2 melanoma = system: SK-MEL-2 melanoma
SK-MEL-28 melanoma = system: SK-MEL-28 melanoma
SK-MEL-5 melanoma = system: SK-MEL-5 melanoma
SK-OV-3 ovarian = system: SK-OV-3 ovarian
SN12C renal = system: SN12C renal
SNB-19 CNS = system: SNB-19 CNS
SNB-75 CNS = system: SNB-75 CNS
SW-620 colon = system: SW-620 colon
T-47D breast = system: T-47D breast
TK-10 renal = system: TK-10 renal
U251 CNS = system: U251 CNS
UACC-257 melanoma = system: UACC-257 melanoma
UACC-62 melanoma = system: UACC-62 melanoma
UO-31 renal = system: UO-31 renal

Cc1nn(-c2ccccc2)c(-n2ccnc2)c1/C=N/Nc1nc(-c2ccc(Cl)c(Cl)c2)cs1
GI50 (786-0 renal): 3.21 µM
TGI (786-0 renal): 13.3 µM
GI50 (A498 renal): 7.98 µM
TGI (A498 renal): 35.9 µM
GI50 (A549 NSCLC): 2.72 µM
TGI (A549 NSCLC): 10 µM
GI50 (ACHN renal): 3.97 µM
TGI (ACHN renal): 16.9 µM
GI50 (BT-549 breast): 5.88 µM
TGI (BT-549 breast): 45 µM
GI50 (CAKI-1 renal): 5.55 µM
TGI (CAKI-1 renal): 20 µM
GI50 (CCRF-CEM leukemia): 3.96 µM
TGI (CCRF-CEM leukemia): > 100 µM
GI50 (COLO 205 colon): 4.46 µM
TGI (COLO 205 colon): > 100 µM
GI50 (DU-145 prostate): 3.15 µM
TGI (DU-145 prostate): 13.3 µM
GI50 (EKVX NSCLC): 5.7 µM
TGI (EKVX NSCLC): 36.5 µM
GI50 (HCC-2998 colon): 5.1 µM
TGI (HCC-2998 colon): 46.8 µM
GI50 (HCT-116 colon): 1.9 µM
TGI (HCT-116 colon): 4.75 µM
GI50 (HCT-15 colon): 4.09 µM
TGI (HCT-15 colon): > 100 µM
GI50 (HL-60(TB) leukemia): 6.91 µM
TGI (HL-60(TB) leukemia): > 100 µM
GI50 (HOP-62 NSCLC): 5.92 µM
TGI (HOP-62 NSCLC): 29.7 µM
GI50 (HOP-92 NSCLC): 0.214 µM
TGI (HOP-92 NSCLC): 3.49 µM
GI50 (HS 578T breast): 2.95 µM
TGI (HS 578T breast): 28.9 µM
GI50 (HT29 colon): 4.99 µM
TGI (HT29 colon): > 100 µM
GI50 (IGROV1 ovarian): 6.07 µM
TGI (IGROV1 ovarian): 26.2 µM
GI50 (K-562 leukemia): 2.49 µM
TGI (K-562 leukemia): > 100 µM
GI50 (KM12 colon): 7.89 µM
TGI (KM12 colon): > 100 µM
GI50 (LOX IMVI melanoma): 3.01 µM
TGI (LOX IMVI melanoma): 13.4 µM
GI50 (M14 melanoma): 4.11 µM
TGI (M14 melanoma): 30.6 µM
GI50 (MALME-3M melanoma): 1.95 µM
TGI (MALME-3M melanoma): 9.21 µM
GI50 (MCF7 breast): 2.17 µM
TGI (MCF7 breast): 6.37 µM
GI50 (MDA-MB-231 breast): 2.49 µM
TGI (MDA-MB-231 breast): 11.2 µM
GI50 (MDA-MB-435): 84.7 µM
TGI (MDA-MB-435): > 100 µM
GI50 (MOLT-4 leukemia): 7.33 µM
TGI (MOLT-4 leukemia): > 100 µM
GI50 (NCI-H226 lung): 1.91 µM
TGI (NCI-H226 lung): 10.8 µM
GI50 (NCI-H23 lung): 1.94 µM
TGI (NCI-H23 lung): 9.9 µM
GI50 (NCI-H460 lung): 3.04 µM
TGI (NCI-H460 lung): 10.7 µM
GI50 (NCI-H522 lung): 13.4 µM
TGI (NCI-H522 lung): 68.1 µM
GI50 (NCI/ADR-RES ovarian): 2.31 µM
TGI (NCI/ADR-RES ovarian): 9.02 µM
GI50 (OVCAR-3 ovarian): 1.68 µM
TGI (OVCAR-3 ovarian): 3.44 µM
GI50 (OVCAR-4 ovarian): 1.48 µM
TGI (OVCAR-4 ovarian): 3.76 µM
GI50 (OVCAR-5 ovarian): 14.9 µM
TGI (OVCAR-5 ovarian): 57.6 µM
GI50 (OVCAR-8 ovarian): 3.44 µM
TGI (OVCAR-8 ovarian): 22.3 µM
GI50 (PC-3 prostate): 3.02 µM
TGI (PC-3 prostate): 18.7 µM
GI50 (RPMI-8226 leukemia): 0.65 µM
TGI (RPMI-8226 leukemia): 8.83 µM
GI50 (RXF 393 renal): 2.29 µM
TGI (RXF 393 renal): 6.12 µM
GI50 (SF-268 CNS): 9.37 µM
TGI (SF-268 CNS): 37.5 µM
GI50 (SF-295 CNS): 5.21 µM
TGI (SF-295 CNS): 20.3 µM
GI50 (SF-539 CNS): 3.66 µM
TGI (SF-539 CNS): 14.2 µM
GI50 (SK-MEL-2 melanoma): 17.5 µM
TGI (SK-MEL-2 melanoma): 50.8 µM
GI50 (SK-MEL-28 melanoma): 3.89 µM
TGI (SK-MEL-28 melanoma): 19.7 µM
GI50 (SK-MEL-5 melanoma): 2.54 µM
TGI (SK-MEL-5 melanoma): 12.9 µM
GI50 (SK-OV-3 ovarian): 23.5 µM
TGI (SK-OV-3 ovarian): 69.4 µM
GI50 (SN12C renal): 4.2 µM
TGI (SN12C renal): 20.1 µM
GI50 (SNB-19 CNS): 16.2 µM
TGI (SNB-19 CNS): 92.3 µM
GI50 (SNB-75 CNS): 1.66 µM
TGI (SNB-75 CNS): 5.35 µM
GI50 (SW-620 colon): 3.36 µM
TGI (SW-620 colon): 53.4 µM
GI50 (T-47D breast): 6.65 µM
TGI (T-47D breast): > 100 µM
GI50 (TK-10 renal): 20.3 µM
TGI (TK-10 renal): 63.2 µM
GI50 (U251 CNS): 4.28 µM
TGI (U251 CNS): 20.7 µM
GI50 (UACC-257 melanoma): 17.7 µM
TGI (UACC-257 melanoma): 85.3 µM
GI50 (UACC-62 melanoma): 7.6 µM
TGI (UACC-62 melanoma): 31.9 µM
GI50 (UO-31 renal): 2.3 µM
TGI (UO-31 renal): 21.8 µM
